Among the test systems are 786-0; A549; ACHN; CAKI-1; HCC 2998; HL-60; HOP-62; K562; MCF7; MDA-MB-231; MDA-MB-435; MOLT-4; NCI-H460; NCI/ADR-RES; OVCAR-5; SK-MEL-5; SR; TK-10; UACC-257; SK-MEL-28.
What all share (assay): NCI tumour cell line growth inhibition, 48 h

Structures are written as SMILES.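 All cell lines were grown in 96-well plates and treated with compound for 48 hours. The concentration for 50% growth inhibition is given as GI50.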 Calls of active or inactive are those of the source. No stated cut-off is given here; in the data, active = GI50 up to about 1.1 µM and inactive = higher.

In the case of `CCN(CC)c1ccc2cc(-c3nc4ccccc4n3C)c(=O)oc2c1`, the GI50 with 786-0 was 0.381 µM (active); in the experiment on A549, 0.578 µM (active); in the experiment with ACHN, 2.79 µM (inactive); in the experiment on CAKI-1, 0.288 µM (active); with HCC 2998 it was 0.685 µM (active); with HL-60 it was 0.206 µM (active). In addition, the GI50 is 0.411 µM (active) with HOP-62; 0.102 µM (active) in the experiment with K562; 0.667 µM (active) with MCF7; 0.889 µM (active) in the experiment with MDA-MB-231; 0.0369 µM (active) in the experiment on MDA-MB-435; 0.533 µM (active) in the experiment on MOLT-4. Also, the GI50 with NCI-H460 was 0.286 µM (active); in the experiment with NCI/ADR-RES it was 0.135 µM (active); in the experiment on OVCAR-5 it was 1.15 µM (inactive); in the experiment on SK-MEL-5 it was 0.0948 µM (active); in the experiment on SR, 0.0986 µM (active); in the experiment with TK-10, > 100 µM (inactive). In the experiment on UACC-257, the GI50 was 1.17 µM (inactive).
Turning to `CCOC(=O)c1cc2cc(Cc3ccc4[nH]c(C(=O)OCC)cc4c3)ccc2[nH]1`, the GI50 is 2.86 µM (inactive) in the experiment with 786-0; 14.5 µM (inactive) with ACHN; 12 µM (inactive) in the experiment on CAKI-1; 91.6 µM (inactive) in the experiment with HCC 2998; 9.35 µM (inactive) in the experiment on HL-60; 5.14 µM (inactive) in the experiment on HOP-62. Besides, the GI50 in the experiment with K562 is 21.9 µM (inactive); in the experiment on MCF7, 52.4 µM (inactive); with MDA-MB-231, 15.5 µM (inactive); in the experiment on MDA-MB-435 it was 27.2 µM (inactive); in the experiment with MOLT-4 it was > 100 µM (inactive); in the experiment with NCI-H460 it was 24.1 µM (inactive). Besides, the GI50 in the experiment on NCI/ADR-RES was 13.4 µM (inactive); in the experiment with OVCAR-5, > 100 µM (inactive); with SK-MEL-28, 29.4 µM (inactive); with SR, 41.3 µM (inactive); in the experiment with TK-10, 13.9 µM (inactive); with UACC-257 it was 43.6 µM (inactive).
With `COc1ccc(/C=N/c2c(O)ccc3ccccc23)cc1OC`, the GI50 in the experiment with 786-0 is > 100 µM (inactive); with A549, 54.6 µM (inactive); with ACHN, > 100 µM (inactive); in the experiment with CAKI-1, 63.2 µM (inactive); with HCC 2998, > 100 µM (inactive); in the experiment on HL-60, 22.1 µM (inactive). In addition, the GI50 was 92 µM (inactive) in the experiment with HOP-62; 47.1 µM (inactive) with K562; > 100 µM (inactive) with MCF7; 63.7 µM (inactive) in the experiment with MDA-MB-231; 18.9 µM (inactive) with MDA-MB-435; 80.9 µM (inactive) in the experiment with NCI-H460. Besides, the GI50 in the experiment with NCI/ADR-RES was > 100 µM (inactive); with OVCAR-5 it was > 100 µM (inactive); with SK-MEL-28, > 100 µM (inactive); with SK-MEL-5, 56.2 µM (inactive); with SR, > 100 µM (inactive); in the experiment on TK-10, > 100 µM (inactive). In addition, the GI50 with UACC-257 was 80.5 µM (inactive).
As to `CCOC(=O)CCc1c(C)nc2c(C)c3c([nH]c4ccc(Cl)cc43)c(C)c2c1O`, the GI50 is 6.37 µM (inactive) with 786-0; 4.51 µM (inactive) with A549; 12.1 µM (inactive) in the experiment on ACHN; 18.2 µM (inactive) with CAKI-1; 14.1 µM (inactive) in the experiment with HCC 2998; 4.94 µM (inactive) in the experiment with HL-60. For the same molecule, the GI50 in the experiment on HOP-62 is 12.3 µM (inactive); with MCF7, 7 µM (inactive); with MDA-MB-231 it was 12.6 µM (inactive); in the experiment with MDA-MB-435, 9.18 µM (inactive); in the experiment on MOLT-4, 6.01 µM (inactive); in the experiment on NCI-H460, 2.15 µM (inactive). The GI50 was 17.3 µM (inactive) in the experiment with NCI/ADR-RES; 0.843 µM (active) in the experiment with OVCAR-5; 14.1 µM (inactive) in the experiment on SK-MEL-28; 6.12 µM (inactive) with SK-MEL-5; 6.55 µM (inactive) in the experiment with SR; 10.7 µM (inactive) in the experiment with TK-10. The GI50 with UACC-257 was 6 µM (inactive).
In the case of `Cc1cnc(-c2c[nH]c3ccccc23)nc1-c1c[nH]c2ccccc12`, the GI50 in the experiment on 786-0 is 3.58 µM (inactive); in the experiment with A549 it was 3.64 µM (inactive); in the experiment on ACHN, 2.94 µM (inactive); with CAKI-1, 5.4 µM (inactive); with HCC 2998 it was 4.67 µM (inactive); with HL-60, 5 µM (inactive). Also, the GI50 in the experiment with HOP-62 is 11.7 µM (inactive); in the experiment with K562, 3.3 µM (inactive); with MCF7, 3.05 µM (inactive); in the experiment with MDA-MB-231, 2.31 µM (inactive); with MDA-MB-435, 5.87 µM (inactive); with MOLT-4 it was 4.2 µM (inactive). Besides, the GI50 with NCI-H460 was 2.65 µM (inactive); in the experiment with NCI/ADR-RES, 7.67 µM (inactive); with OVCAR-5, 5.5 µM (inactive); with SK-MEL-5 it was 6.97 µM (inactive); with SR, 11.3 µM (inactive); with TK-10 it was 5.31 µM (inactive). Moreover, in the experiment on UACC-257, the GI50 is 6.82 µM (inactive).
Turning to `CSC(SC)=C(C#N)C(=O)Nc1ccc(Cl)cc1`, the GI50 with 786-0 is 31.7 µM (inactive); with A549 it was 31.3 µM (inactive); with CAKI-1 it was 22 µM (inactive); in the experiment with HCC 2998, > 100 µM (inactive); in the experiment with HL-60, 23.9 µM (inactive); in the experiment on K562, 25.9 µM (inactive). Moreover, the GI50 was 41.8 µM (inactive) in the experiment on MCF7; > 100 µM (inactive) with MDA-MB-231; 69.2 µM (inactive) in the experiment with MDA-MB-435; 27.7 µM (inactive) in the experiment with MOLT-4; > 100 µM (inactive) with NCI-H460; 44.4 µM (inactive) in the experiment with NCI/ADR-RES. Moreover, the GI50 in the experiment on OVCAR-5 is > 100 µM (inactive); in the experiment on SK-MEL-28, > 100 µM (inactive); in the experiment with SK-MEL-5, 51.6 µM (inactive); with SR, 38.1 µM (inactive); in the experiment on TK-10 it was 23.8 µM (inactive); in the experiment on UACC-257, > 100 µM (inactive).
Turning to `Cc1ccc2c(c1)Sc1ccc(/N=N/N(C)C)cc1N2C`, the GI50 is > 100 µM (inactive) with 786-0; > 100 µM (inactive) in the experiment on A549; > 100 µM (inactive) in the experiment on ACHN; > 100 µM (inactive) in the experiment on CAKI-1; > 100 µM (inactive) in the experiment with HCC 2998; 64.6 µM (inactive) in the experiment with HL-60. In addition, the GI50 in the experiment with HOP-62 was > 100 µM (inactive); in the experiment on MCF7, 87.9 µM (inactive); in the experiment with MDA-MB-231, > 100 µM (inactive); with MDA-MB-435, > 100 µM (inactive); with MOLT-4 it was 57.7 µM (inactive); in the experiment with NCI-H460, 54.7 µM (inactive). The GI50 in the experiment with NCI/ADR-RES was > 100 µM (inactive); in the experiment on OVCAR-5 it was > 100 µM (inactive); with SK-MEL-28, > 100 µM (inactive); with SK-MEL-5 it was 96.2 µM (inactive); with SR, 52.8 µM (inactive); in the experiment with TK-10, > 100 µM (inactive).
As to `N=c1c2c(=S)n(-c3ccccc3)c(=S)n(-c3ccccc3)c2nc(SCCCN2CCCCC2)n1-c1ccccc1`, the GI50 with 786-0 was 1.09 µM (active); with A549, 1.83 µM (inactive); in the experiment with ACHN it was 1.7 µM (inactive); in the experiment with CAKI-1, 1.77 µM (inactive); in the experiment on HCC 2998, 1.49 µM (inactive); with HL-60, 1.81 µM (inactive). Besides, the GI50 is 1.76 µM (inactive) in the experiment on HOP-62; 1.48 µM (inactive) in the experiment with K562; 0.329 µM (active) in the experiment with MCF7; 1.64 µM (inactive) with MDA-MB-231; 1.75 µM (inactive) with MDA-MB-435; 0.118 µM (active) in the experiment on MOLT-4. In addition, the GI50 in the experiment with NCI-H460 was 1.93 µM (inactive); in the experiment with NCI/ADR-RES it was 2.91 µM (inactive); in the experiment with OVCAR-5 it was 11.5 µM (inactive); in the experiment with SK-MEL-28 it was 2.11 µM (inactive); with SK-MEL-5 it was 1.86 µM (inactive); in the experiment on SR it was 0.558 µM (active). The values for the GI50 in the experiment on TK-10 and in the experiment on UACC-257 were 1.71 µM (inactive) and 1.75 µM (inactive), respectively.
Consider `O=C1Oc2cc3c(c4cccc1c24)O[C@H](c1ccccc1)[C@@H](c1ccccc1)[C@@H]3c1ccc(Cl)cc1`, for which the GI50 in the experiment on 786-0 is 17.6 µM (inactive); with ACHN, 26.7 µM (inactive); with CAKI-1, > 100 µM (inactive); in the experiment with HCC 2998, > 100 µM (inactive); in the experiment on HL-60, > 100 µM (inactive); with HOP-62, 18.2 µM (inactive). Also, the GI50 in the experiment on K562 was 46.1 µM (inactive); in the experiment on MCF7, > 100 µM (inactive); in the experiment with MDA-MB-231, 18.3 µM (inactive); in the experiment with MDA-MB-435, 76.7 µM (inactive); in the experiment on MOLT-4 it was 19.6 µM (inactive); in the experiment on NCI-H460 it was > 100 µM (inactive). Moreover, the GI50 in the experiment on NCI/ADR-RES was > 100 µM (inactive); in the experiment on OVCAR-5, > 100 µM (inactive); in the experiment on SK-MEL-28 it was > 100 µM (inactive); in the experiment with SK-MEL-5, > 100 µM (inactive); in the experiment with SR, 18.8 µM (inactive); in the experiment with TK-10, 39.3 µM (inactive). Further, in the experiment on UACC-257, the GI50 was > 100 µM (inactive).
With `CN(/N=C/c1ccc(C(=O)O)cc1)C1=NCCCCN1`, the GI50 in the experiment on 786-0, in the experiment with A549, in the experiment with ACHN, in the experiment with CAKI-1, in the experiment with HCC 2998 and in the experiment on HL-60 was > 100 µM (inactive) throughout. The GI50 in the experiment on HOP-62, in the experiment on K562, with MCF7, in the experiment on MDA-MB-231, in the experiment on MDA-MB-435 and with MOLT-4 was > 100 µM (inactive) throughout. The GI50 in the experiment with NCI-H460, in the experiment on NCI/ADR-RES, in the experiment with OVCAR-5, with SK-MEL-28, with SK-MEL-5 and in the experiment on SR was > 100 µM (inactive) throughout. Moreover, in the experiment on UACC-257, the GI50 is > 100 µM (inactive).
Regarding `Fc1ccc(Oc2nc3ccc(C(F)(F)F)cc3nc2-c2ccccc2)cc1`, the GI50 is 61.7 µM (inactive) in the experiment with 786-0; 36.6 µM (inactive) in the experiment with A549; 44.8 µM (inactive) with ACHN; 27.9 µM (inactive) in the experiment with CAKI-1; 14.5 µM (inactive) in the experiment with HCC 2998; 87.3 µM (inactive) with HL-60. The GI50 is 24.4 µM (inactive) in the experiment with HOP-62; > 10 µM (inactive) in the experiment with K562; 28.8 µM (inactive) in the experiment on MCF7; > 100 µM (inactive) with MDA-MB-231; 76.2 µM (inactive) in the experiment on MDA-MB-435; 46 µM (inactive) in the experiment on MOLT-4. Further, the GI50 in the experiment with NCI-H460 was 66.2 µM (inactive); in the experiment on NCI/ADR-RES, > 100 µM (inactive); in the experiment with OVCAR-5, > 100 µM (inactive); with SK-MEL-5, 68.1 µM (inactive); in the experiment with SR, 24.3 µM (inactive); in the experiment on TK-10, 51.2 µM (inactive). Besides, the GI50 in the experiment on UACC-257 was 47.2 µM (inactive).

The values above are taken from ChEMBL document CHEMBL1201862, “PubChem BioAssay data set” (2004).
